Experimental data from US11754547B2, “Biorecognition elements for detection of fungi and bacteria in fuel systems” (priority 2020, dated 2023).

Key:
Test in all cases: Western blot of phage-displayed peptide BRE binding to biotinylated target peptide
[1] = system: CHI-P1 (SEQ. ID No. 25), Chitinase; set-up: species or system fungi; details: phage clone with biotinylated target peptide, streptavidin bead pull-down; FIG. 4
Text: (§1) Recombinant phage clones were selected using X-Gal/IPTG, which produced a blue color on phage infected E. coli colonies. After the amplification of multiple phage isolates carrying a single heptapeptide sequence (i.e., monoclonal phages), genomic DNA was isolated and sequenced to determine the aa sequences of the peptide BREs. Isolated monoclonal phages were sequenced after each round of selection. After four rounds of selection, the phage pool was enriched for target-binding phages with specific sequences. […] The binding of phages displaying specific peptide BREs to the target was assessed by Western blot analysis. Monoclonal target-specific bacteriophages were incubated with biotinylated target peptide epitope under conditions similar to those used in biopanning. The resulting phage-target complexes were recovered using streptavidin-coated magnetic beads, and the phage-target complexes were resolved via SDS-PAGE and detected by Western blot using antibodies against the M13 phage capsid and the biotin molecule attached to the specific target. Western blotting was performed by preparing a 200 μL solution with each of the phage clones at a concentration of 1×10^11 pfu/mL in 1×TBS, pH 7.5. Then, 10 μL of biotinylated target peptide of concentration 1 mg/mL was added to each phage solution and incubated at 25° C. for 1 hr. […]

[2] = system: Gor-Fasciclin (SEQ. ID No. 58), Gordonia-Fasciclin; details: phage clone with biotinylated target peptide, streptavidin bead pull-down; FIG. 5
Text: as §1, with “hr. Phage-biotin target complexes were captured and pull-down with 25 μL of streptavidin-coated beads, and the captured complexes washed five times with 1×TBST. The pelleted complexes were re-suspended in 20 μL of 2× Laemmli Buffer, heated to 95° C. for 5 min, and resolved in a 14% SDS-PAGE gel. Proteins were blotted to a nitrocellulose membrane and blocked with TBST containing 5% BSA. To detect phages, a 1:2000 dilution of rabbit anti-M13 phage antibody (primary antibody) followed by a 1:5000 dilution of alkaline phosphatase (AP)-conjugated goat anti-rabbit antibody was used. For detection of biotinylated target, a 1:2000 dilution of AP-conjugated goat anti-biotin antibody was used. For colorimetric visualization, BCIP/NBT reagent was used.” for “hr.”

[3] = system: ALK-P3 (SEQ. ID No. 1), P450 Alkane Hydroxylase; set-up: species or system fungi; details: phage clone with biotinylated target peptide, streptavidin bead pull-down; FIG. 4
Text: as §1

Sequence of Gor-Fasciclin (SEQ. ID No. 58), Gordonia-Fasciclin (as listed by the source): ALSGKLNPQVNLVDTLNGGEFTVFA
Sequence of ALK-P3 (SEQ. ID No. 1), P450 Alkane Hydroxylase (as listed by the source): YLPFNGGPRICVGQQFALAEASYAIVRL

Row | Substance | binding to Gor-Fasciclin (SEQ. ID No. 58) target, Western blot [2] | also measured
1 | MPPHGDR (Artificial Sequence Obtained Through Biopanning) [SEQ. ID No. 26] | – | binding to CHI-P1 (SEQ. ID No. 25) target, Western blot [1]: specific binding
2 | RSLGYTG (Artificial Sequence Obtained Through Biopanning) [SEQ. ID No. 60] | specific binding | –
3 | TWTLARP (Artificial Sequence Obtained Through Biopanning) [SEQ. ID No. 59] | specific binding | –
4 | WSLGYTG (Artificial Sequence Obtained Through Biopanning) [SEQ. ID No. 2] | – | binding to ALK-P3 (SEQ. ID No. 1) target, Western blot [3]: specific binding
5 | YVPEWVS (Artificial Sequence Obtained Through Biopanning) [SEQ. ID No. 61] | specific binding | –
